From patent publication EP1200406B1, “CYCLIC AMIDES AND IMIDES HAVING SELECTIVE ANTAGONIST ACTIVITY AT ALPHA-1D ADRENERGIC RECEPTOR” (RECORDATI INDUSTRIA CHIMICA E FARMACEUTICA S.p.a., priority 1999, dated 2001)

How the values were obtained:
Guinea pig spleen α1B = target: T1, Guinea pig spleen α1B (Cavia porcellus, UniProt H0WBQ9); details: footnote a: Eltze M., Eur. J. Pharmacol. 260, 211-220 (1994); cited from earlier work
T1 construct: from tissue; host or cells: guinea pig spleen, longitudinal strips
T1 sequence (H0WBQ9 1-520): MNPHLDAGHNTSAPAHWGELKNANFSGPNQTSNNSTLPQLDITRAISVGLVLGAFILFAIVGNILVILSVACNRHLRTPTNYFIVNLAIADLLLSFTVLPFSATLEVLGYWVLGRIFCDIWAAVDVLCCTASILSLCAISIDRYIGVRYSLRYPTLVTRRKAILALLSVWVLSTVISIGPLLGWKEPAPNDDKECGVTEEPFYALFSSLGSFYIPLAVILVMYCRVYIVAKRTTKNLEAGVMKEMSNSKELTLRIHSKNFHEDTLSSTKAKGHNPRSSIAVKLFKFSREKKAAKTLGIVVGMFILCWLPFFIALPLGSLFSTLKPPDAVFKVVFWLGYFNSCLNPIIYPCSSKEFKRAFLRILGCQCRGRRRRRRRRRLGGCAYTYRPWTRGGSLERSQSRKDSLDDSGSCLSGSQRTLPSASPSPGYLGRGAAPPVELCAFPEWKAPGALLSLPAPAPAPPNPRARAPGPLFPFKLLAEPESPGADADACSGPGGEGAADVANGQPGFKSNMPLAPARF

[1] = target: T2, human recombinant α1b adrenoceptor (Homo sapiens, UniProt P35368); experiment: Radioligand binding ([3H]prazosin) on membranes of CHO cells expressing cloned α1b adrenoceptor; details: human cloned receptor, CHO cell membranes, 0.2 nM [3H]prazosin; read-out: Affinity (Ki) α1b
T2 construct: expressed in transfected cells; host or cells: CHO cells (membranes)
T2 sequence (P35368 1-520): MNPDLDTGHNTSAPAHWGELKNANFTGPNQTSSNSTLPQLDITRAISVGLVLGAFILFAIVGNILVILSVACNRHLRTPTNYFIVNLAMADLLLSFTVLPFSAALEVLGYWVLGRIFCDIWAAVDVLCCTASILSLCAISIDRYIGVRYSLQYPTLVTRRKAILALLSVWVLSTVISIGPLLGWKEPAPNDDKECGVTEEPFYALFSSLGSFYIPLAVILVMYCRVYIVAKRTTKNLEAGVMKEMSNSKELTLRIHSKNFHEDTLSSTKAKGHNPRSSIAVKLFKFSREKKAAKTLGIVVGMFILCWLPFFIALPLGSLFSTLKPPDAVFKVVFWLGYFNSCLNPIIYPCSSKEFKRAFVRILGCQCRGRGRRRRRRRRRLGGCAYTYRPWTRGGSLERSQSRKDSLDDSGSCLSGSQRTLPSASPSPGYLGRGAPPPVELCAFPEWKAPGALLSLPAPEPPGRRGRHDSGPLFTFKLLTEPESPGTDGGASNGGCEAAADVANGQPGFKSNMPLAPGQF
Procedure: (§1) The determination of affinity for cloned subtypes of human α1 adrenergic receptors was performed in membranes from CHO cells (chinese hamster ovary cells) transfected by electroporation with DNA expressing the genes encoding each α1-adrenoceptor subtype, namely α1a, α1b and α1d.. Cloning and stable expression of the human α1-adrenoceptor gene were performed as previously described (Testa et al., Pharmacol. Comm. 6, 79-86 (1995)). CHO cell membranes were incubated in […] Tris pH 7.4 with 0.2 nM [^3H]prazosin, in a final volume of 1.02 ml for 30 minutes at 25°C, in the absence or presence of competing drugs (1 pM-10 µM). Non-specific binding was determined in the presence of 10 µM phentolamine. Incubation was stopped by addition of ice-cold Tris buffer and rapid filtration through 0.2% polyethyleneimine pretreated Schleicher & Schuell GF52 filters. Genomic clone G-21 coding for the human 5-HT1A-serotoninergic receptor was stably transfected in a human cell line (HeLa) (Fargin et al., J. Biol. Chem. 284, 14848-14852 (1989)). The HeLa cells were grown as monolayers in Dulbecco's modified Eagle's medium (DMEM), supplemented with 10% foetal calf serum and gentamicin (100 µg/ml), 5% CO2, at 37°C. The cells were detached from the growth flask at 95% confluence by a cell scraper and were lysed in ice-cold 5 mM Tris and 5-mM EDTA buffer (pH 7.4). The homogenates were centrifuged at 40000 x g x 20 minutes and the membranes were re-suspended in a small volume of ice-cold 5 mM Tris and 5-mM EDTA buffer (pH 7.4) and immediately frozen and stored at -70°C until use. On the experiment day, the cell membranes were re-suspended in a buffer containing 50 mM Tris (pH 7.4), 2.5 mM MgCl2, 10 µM pargyline (Fargin et al., Nature 335, 358-360 (1988)). […] The incubation was stopped by addition of ice-cold Tris buffer and rapid filtration through 0.2%-polyethyleneimine-pretreated Schleicher & Schuell filters. The inhibition of specific binding of the radioligands by the drugs was analysed to estimate the IC50 value by using the non-linear curve-fitting programme Allfit (De Lean et al., Am. J. Physiol. 235, E97-E102 (1978)). The IC50 value was converted to an affinity constant (Ki) by the equation of Cheng & Prusoff (Biochem. Pharmacol. 22, 3099-3108 (1973)). Data were expressed as mean of Ki.

[2] = target: T3, human 5-HT1A-serotoninergic receptor (Homo sapiens, UniProt P08908); experiment: Radioligand binding ([3H]8-OH-DPAT) on membranes of HeLa cells expressing cloned 5-HT1A receptor; details: human cloned receptor, HeLa cell membranes, 1.2 nM [3H]8-OH-DPAT; read-out: Affinity (Ki) 5-HT1A
T3 construct: expressed in transfected cells; host or cells: HeLa cells (membranes)
T3 sequence (P08908 1-422): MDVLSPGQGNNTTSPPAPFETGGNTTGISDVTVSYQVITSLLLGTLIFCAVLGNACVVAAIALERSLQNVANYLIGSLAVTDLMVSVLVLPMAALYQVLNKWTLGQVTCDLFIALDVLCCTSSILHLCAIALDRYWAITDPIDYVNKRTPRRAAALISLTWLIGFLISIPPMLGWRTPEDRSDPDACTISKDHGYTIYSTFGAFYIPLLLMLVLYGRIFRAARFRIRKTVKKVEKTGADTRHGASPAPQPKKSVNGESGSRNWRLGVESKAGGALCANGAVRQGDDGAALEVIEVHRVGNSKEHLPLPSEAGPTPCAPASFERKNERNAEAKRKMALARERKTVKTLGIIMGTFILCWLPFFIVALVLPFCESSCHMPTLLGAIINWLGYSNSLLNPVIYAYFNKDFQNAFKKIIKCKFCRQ
Procedure: as §1

Ki [1]: 69 nM
Ki [2]: 0.93 nM
SMILES: COc1ccccc1N1CCN(CCN2C(=O)CC3(CCCC3)CC2=O)CC1 [BMY-7378, reference compound]
Functional affinity pKB, Guinea pig spleen α1B (Guinea pig spleen α1B): 6.55^a
